Source: ChEMBL document CHEMBL1157449, “Development of a novel fluorescent probe for fluorescence correlation spectroscopic detection of kinase inhibitors” (Bioorg Med Chem Lett, 2008)

Columns and labels:
[1] = target: T1, Mitogen-activated protein kinase kinase kinase 5 (Homo sapiens, UniProt Q99683); experiment: Inhibition of ASK1 by fluorescence correlation spectroscopy
T1 sequence (Q99683 whole entry): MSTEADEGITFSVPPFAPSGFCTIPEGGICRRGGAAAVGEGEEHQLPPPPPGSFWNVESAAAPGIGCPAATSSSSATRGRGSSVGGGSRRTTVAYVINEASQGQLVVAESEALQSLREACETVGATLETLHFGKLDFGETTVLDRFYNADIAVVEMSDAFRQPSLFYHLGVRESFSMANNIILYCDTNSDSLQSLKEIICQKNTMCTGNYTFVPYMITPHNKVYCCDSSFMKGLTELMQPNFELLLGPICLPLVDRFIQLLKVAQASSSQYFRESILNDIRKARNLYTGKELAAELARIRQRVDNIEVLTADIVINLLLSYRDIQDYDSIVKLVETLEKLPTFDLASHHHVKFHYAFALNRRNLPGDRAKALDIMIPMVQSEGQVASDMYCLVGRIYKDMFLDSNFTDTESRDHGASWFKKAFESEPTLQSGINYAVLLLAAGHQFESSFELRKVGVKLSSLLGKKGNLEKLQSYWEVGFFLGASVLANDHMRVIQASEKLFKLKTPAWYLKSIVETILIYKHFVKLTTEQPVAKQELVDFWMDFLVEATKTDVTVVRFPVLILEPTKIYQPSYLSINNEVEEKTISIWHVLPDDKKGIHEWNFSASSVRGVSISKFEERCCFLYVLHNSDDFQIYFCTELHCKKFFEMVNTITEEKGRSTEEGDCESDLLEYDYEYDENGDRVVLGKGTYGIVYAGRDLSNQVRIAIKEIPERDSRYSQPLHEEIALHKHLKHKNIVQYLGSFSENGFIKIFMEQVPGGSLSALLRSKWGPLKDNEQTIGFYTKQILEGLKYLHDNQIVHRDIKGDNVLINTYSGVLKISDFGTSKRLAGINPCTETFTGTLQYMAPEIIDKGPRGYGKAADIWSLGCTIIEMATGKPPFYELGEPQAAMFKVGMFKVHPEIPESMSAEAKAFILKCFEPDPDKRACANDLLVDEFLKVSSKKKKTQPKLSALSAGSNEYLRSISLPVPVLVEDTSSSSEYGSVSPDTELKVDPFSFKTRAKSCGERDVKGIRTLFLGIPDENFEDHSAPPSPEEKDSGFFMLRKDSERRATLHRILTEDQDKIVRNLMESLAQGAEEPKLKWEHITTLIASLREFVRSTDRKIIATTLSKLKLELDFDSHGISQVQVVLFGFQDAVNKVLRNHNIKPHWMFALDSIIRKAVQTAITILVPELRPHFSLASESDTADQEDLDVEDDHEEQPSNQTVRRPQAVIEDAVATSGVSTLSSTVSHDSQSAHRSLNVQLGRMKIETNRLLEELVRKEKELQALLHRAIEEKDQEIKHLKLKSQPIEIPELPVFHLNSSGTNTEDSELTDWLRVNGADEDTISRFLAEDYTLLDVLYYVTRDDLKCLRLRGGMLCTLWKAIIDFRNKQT

[2] = target: T1, Mitogen-activated protein kinase kinase kinase 5; experiment: Inhibition of ASK1 by luciferase assay
[3] = target: T1, Mitogen-activated protein kinase kinase kinase 5; experiment: Binding affinity to ASK1

Row | IC50 [1] [µM] | IC50 [2] [µM] | Kd [3] [µM] | Structure (SMILES)
1 | > 100 | 82.7 |  | Cn1cc(/C=C2\C(=O)Nc3ccccc32)c2ccccc21
2 |  |  | 8 | CO[C@@H]1[C@H](N(C)C(=O)COCCOCCNC(=O)c2ccc(-c3c4ccc(=[N+](C)C)cc-4oc4cc(N(C)C)ccc34)c(C(=O)O)c2)C[C@H]2O[C@]1(C)n1c3ccccc3c3c4c(c5c6ccccc6n2c5c31)C(=O)NC4
3 | 7 | 0.15 |  | NC1=NC(=O)/C(=C2\CCNC(=O)c3[nH]c(Br)cc32)N1 [HYMENIALDISINE]
